System: 227483-062-R1-J1-PDC complex spheroids with HUVEC/MSC, viability
Assay: Anticancer human tumor 227483-062-R1-J1-PDC patient-derived pancreatic carcinoma cell line growth inhibition [CLK]
Conditions: for IC50: curve of first compound; for viability, T/C: stronger effect = lower value
Procedure, shortened: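 Patient-derived tumor cells grown as complex spheroids with HUVEC endothelial cells and mesenchymal stem cells, treated with drug combinations. Concentrations descend in half-log steps from near clinical Cmax, or from 10 microM if Cmax unknown.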

[1] = second compound 0.0316 µM, first compound 0.0316 µM
[2] = second compound 0.0316 µM, first compound 0.1 µM
[3] = second compound 0.0316 µM, first compound 0.316 µM
[4] = second compound 0.0316 µM, first compound 1 µM
[5] = second compound 0.0316 µM, first compound 3.16 µM
[6] = second compound 0.0316 µM, first compound 10 µM
[7] = second compound 0.1 µM, first compound 0.0316 µM
[8] = second compound 0.1 µM, first compound 0.1 µM
[9] = second compound 0.1 µM, first compound 0.316 µM
[10] = second compound 0.1 µM, first compound 1 µM
[11] = second compound 0.1 µM, first compound 3.16 µM
[12] = second compound 0.1 µM, first compound 10 µM
[13] = second compound 0.316 µM, first compound 0.0316 µM
[14] = second compound 0.316 µM, first compound 0.1 µM
[15] = second compound 0.316 µM, first compound 0.316 µM
[16] = second compound 0.316 µM, first compound 1 µM
[17] = second compound 0.316 µM, first compound 3.16 µM
[18] = second compound 0.316 µM, first compound 10 µM
[19] = second compound 1 µM, first compound 0.0316 µM
[20] = second compound 1 µM, first compound 0.1 µM
[21] = second compound 1 µM, first compound 0.316 µM
[22] = second compound 1 µM, first compound 1 µM
[23] = second compound 1 µM, first compound 3.16 µM
[24] = second compound 1 µM, first compound 10 µM
[25] = second compound 3.16 µM, first compound 0.0316 µM
[26] = second compound 3.16 µM, first compound 0.1 µM
[27] = second compound 3.16 µM, first compound 0.316 µM
[28] = second compound 3.16 µM, first compound 1 µM
[29] = second compound 3.16 µM, first compound 3.16 µM
[30] = second compound 3.16 µM, first compound 10 µM
[31] = second compound 10 µM, first compound 0.0316 µM
[32] = second compound 10 µM, first compound 0.1 µM
[33] = second compound 10 µM, first compound 0.316 µM
[34] = second compound 10 µM, first compound 1 µM
[35] = second compound 10 µM, first compound 3.16 µM
[36] = second compound 10 µM, first compound 10 µM
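Further: spheroids exposed to compounds for seven days before readout.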
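Wherever viability, T/C is given: percent of DMSO vehicle control luminescence as 100% viability.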

CC(=O)O[C@H]1C(=O)[C@@]2(C)[C@H]([C@H](OC(=O)c3ccccc3)[C@]3(O)C[C@H](OC(=O)[C@H](O)[C@@H](NC(=O)c4ccccc4)c4ccccc4)C(C)=C1C3(C)C)[C@]1(OC(C)=O)CO[C@@H]1C[C@@H]2O + CNC(=O)c1ccc(Nc2nc(OC3CCCC3)c3c(-c4ccc5nc(C)oc5c4)c[nH]c3n2)c(OC)c1
IC50 (second compound 0.0316 µM): < 31.6 nM | IC50 (second compound 0.1 µM): > 10000 nM | IC50 (second compound 0.316 µM): > 10000 nM | IC50 (second compound 1 µM): > 10000 nM | IC50 (second compound 3.16 µM): < 31.6 nM | IC50 (second compound 10 µM): < 31.6 nM | viability, T/C [1]: 29.7% | viability, T/C [2]: 27.1% | viability, T/C [3]: 35.6% | viability, T/C [4]: 43.4% | viability, T/C [5]: 48.3% | viability, T/C [6]: 75.9% | viability, T/C [7]: 53.8% | viability, T/C [8]: 62.1% | viability, T/C [9]: 71.1% | viability, T/C [10]: 85.1% | viability, T/C [11]: 77.1% | viability, T/C [12]: 101% | viability, T/C [13]: 70.4% | viability, T/C [14]: 95.6% | viability, T/C [15]: 98.9% | viability, T/C [16]: 101% | viability, T/C [17]: 99.3% | viability, T/C [18]: 95.8% | viability, T/C [19]: 60.8% | viability, T/C [20]: 69.2% | viability, T/C [21]: 72.7% | viability, T/C [22]: 101% | viability, T/C [23]: 96.7% | viability, T/C [24]: 89.4% | viability, T/C [25]: 46.7% | viability, T/C [26]: 58.9% | viability, T/C [27]: 62.9% | viability, T/C [28]: 61.5% | viability, T/C [29]: 70.1% | viability, T/C [30]: 54.6% | viability, T/C [31]: 37.9% | viability, T/C [32]: 49.9% | viability, T/C [33]: 50.3% | viability, T/C [34]: 61.4% | viability, T/C [35]: 49.5% | viability, T/C [36]: 55.5%

Cn1ncnc1[C@H]1c2n[nH]c(=O)c3cc(F)cc(c23)N[C@@H]1c1ccc(F)cc1 + CN1CCN(c2cc(C(=O)Nc3cc4cc(-c5cnn(C)c5)ccc4cn3)ccn2)CC1
IC50 (second compound 0.0316 µM): > 100 nM | IC50 (second compound 0.1 µM): > 100 nM | IC50 (second compound 0.316 µM): < 0.316 nM | IC50 (second compound 1 µM): < 0.316 nM | IC50 (second compound 3.16 µM): < 0.316 nM | IC50 (second compound 10 µM): < 0.316 nM | viability, T/C (second compound 0.0316 µM, first compound 0.000316 µM): 114% | viability, T/C (second compound 0.0316 µM, first compound 0.001 µM): 118% | viability, T/C (second compound 0.0316 µM, first compound 0.00316 µM): 114% | viability, T/C (second compound 0.0316 µM, first compound 0.01 µM): 101% | viability, T/C [1]: 95.3% | viability, T/C [2]: 92.3% | viability, T/C (second compound 0.1 µM, first compound 0.000316 µM): 44.2% | viability, T/C (second compound 0.1 µM, first compound 0.001 µM): 66.2% | viability, T/C (second compound 0.1 µM, first compound 0.00316 µM): 53.6% | viability, T/C (second compound 0.1 µM, first compound 0.01 µM): 53.5% | viability, T/C [7]: 56.3% | viability, T/C [8]: 54.8% | viability, T/C (second compound 0.316 µM, first compound 0.000316 µM): 3.12% | viability, T/C (second compound 0.316 µM, first compound 0.001 µM): 3.26% | viability, T/C (second compound 0.316 µM, first compound 0.00316 µM): 3.58% | viability, T/C (second compound 0.316 µM, first compound 0.01 µM): 4.15% | viability, T/C [13]: 3.29% | viability, T/C [14]: 4.45% | viability, T/C (second compound 1 µM, first compound 0.000316 µM): 1.25% | viability, T/C (second compound 1 µM, first compound 0.001 µM): 1.34% | viability, T/C (second compound 1 µM, first compound 0.00316 µM): 1.34% | viability, T/C (second compound 1 µM, first compound 0.01 µM): 2.07% | viability, T/C [19]: 1.23% | viability, T/C [20]: 1.14% | viability, T/C (second compound 3.16 µM, first compound 0.000316 µM): 1.84% | viability, T/C (second compound 3.16 µM, first compound 0.001 µM): 2.14% | viability, T/C (second compound 3.16 µM, first compound 0.00316 µM): 1.91% | viability, T/C (second compound 3.16 µM, first compound 0.01 µM): 2.43% | viability, T/C [25]: 1.6% | viability, T/C [26]: 1.89% | viability, T/C (second compound 10 µM, first compound 0.000316 µM): 1.14% | viability, T/C (second compound 10 µM, first compound 0.001 µM): 1.09% | viability, T/C (second compound 10 µM, first compound 0.00316 µM): 1.63% | viability, T/C (second compound 10 µM, first compound 0.01 µM): 2.37% | viability, T/C [31]: 1.2% | viability, T/C [32]: 1%

COC1C=CCC(C)C(C)S(=O)(=O)NC(=O)c2ccc3c(c2)N(CC2CCC21)CC1(CCCc2cc(Cl)ccc21)CO3 (stereo unspecified) + CNC(=O)c1ccc(Nc2nc(OC3CCCC3)c3c(-c4ccc5nc(C)oc5c4)c[nH]c3n2)c(OC)c1
IC50 (second compound 0.0316 µM): 6020 nM | IC50 (second compound 0.1 µM): 3740 nM | IC50 (second compound 0.316 µM): 897 nM | IC50 (second compound 1 µM): 207 nM | IC50 (second compound 3.16 µM): 46.2 nM | IC50 (second compound 10 µM): < 31.6 nM | viability, T/C [1]: 84% | viability, T/C [2]: 94.8% | viability, T/C [3]: 106% | viability, T/C [4]: 81.1% | viability, T/C [5]: 88.3% | viability, T/C [6]: 20.1% | viability, T/C [7]: 78.6% | viability, T/C [8]: 88.7% | viability, T/C [9]: 77.4% | viability, T/C [10]: 64.7% | viability, T/C [11]: 59.7% | viability, T/C [12]: 17.8% | viability, T/C [13]: 94% | viability, T/C [14]: 76.3% | viability, T/C [15]: 76.6% | viability, T/C [16]: 43.2% | viability, T/C [17]: 30% | viability, T/C [18]: 14.6% | viability, T/C [19]: 75% | viability, T/C [20]: 58.7% | viability, T/C [21]: 45.9% | viability, T/C [22]: 28% | viability, T/C [23]: 16.7% | viability, T/C [24]: 10.8% | viability, T/C [25]: 54% | viability, T/C [26]: 41.2% | viability, T/C [27]: 33% | viability, T/C [28]: 17.7% | viability, T/C [29]: 9.9% | viability, T/C [30]: 8.25% | viability, T/C [31]: 38.7% | viability, T/C [32]: 34.4% | viability, T/C [33]: 25.8% | viability, T/C [34]: 14.4% | viability, T/C [35]: 9.05% | viability, T/C [36]: 9.22%
